Legend:
Format in all cases: cell-based
[1] = test system: rat HEV replicon LA-B350/luc; assay: Antiviral activity against rat HEV replicon LA-B350/luc in Huh7 cells (Gaussia luciferase); settings: Huh-7, 72 h, luminescence after 3 days, two or three experiments
Experimental: The antiviral activity of compounds was tested against the rat HEV replicon LA-B350/luc as described in Debing et al (Dis Model Mech 2016; 9:1203-10). To this end, Huh7 cells were electroporated with capped viral RNA produced from plasmid pLA-B350/luc, plated in 96-well plates and treated with each of compounds at selected concentrations. For virus control (VC), compound was omitted. After 3 days, luminescence produced by the secreted Gaussia luciferase was quantified using the Promega Renilla luciferase kit and corrected for background with a cell control (CC, viral RNA and compound omitted). The 50% effective concentration (EC50) is defined as the concentration of compound that causes a 50% reduction in the Luc signal compared to that of average corrected VC. The EC50 was based on two or three experiments and derived by a nonlinear regression fit in GraphPad using a two-parameter logistic model while keeping the slope variable.

[2] = test system: HEV Genotype 3 replicon Kernow-C1 p6/luc; assay: Antiviral activity against HEV Genotype 3 replicon Kernow-C1 p6/luc in Huh7 cells (Gaussia luciferase); settings: Huh-7, 96 h, luminescence after 4 days, 4PL fit, two experiments, read-out: relative EC50
Experimental: The antiviral activity of compounds was tested against the HEV Genotype 3 replicon Kernow-C1 p6/luc (Kernow-C1 p6: GenBank accession number JQ679013) as previously described (Debing Y, Emerson S U, Wang Y, Pan Q, Balzarini J, Dallmeier K, Neyts J. 2013. Ribavirin Inhibits In Vitro Hepatitis E Virus Replication through Depletion of Cellular GTP Pools and Is Moderately Synergistic with Alpha Interferon. Antimicrob Agents Chemother, 58:267-273). To this end, Huh7 cells were electroporated with capped in vitro transcribed Kernow-C1 p6/luc-RNA produced from Mlul-digested plasmid DNA (Shukla P, Nguyen H T, Faulk K, Mather K, Torian U, Engle R E, Emerson SU. 2012. Adaptation of a genotype 3 hepatitis E virus to efficient growth in cell culture depends on an inserted human gene segment acquired by recombination. J. Virol. 86:5697-5707), seeded in 96-well plates containing serial dilutions of the test compounds. For virus control (VC) compound was omitted. After 4 days, luminescence produced by the secreted Gaussia luciferase was quantified using the Promega Renilla luciferase kit and corrected for background with a cell control (CC, viral RNA and compound omitted). The relative 50% effective concentration (EC50) is defined as the concentration of compound that causes a 50% reduction in the Luc signal, relative to the signal range. The relative EC50 was based on two experiments and derived by a nonlinear regression fit in GraphPad using a four-parameter logistic (4PL) model.

[3] = Viability evaluation (MTS/PMS) of Huh7 cells transfected with the rat HEV replicon; settings: human, highest tested concentration 50 μM
Experimental: (§1) For viability evaluation, medium was removed and cells were subsequently incubated with MTS/PMS solution (3-(4,5-dimethylthiazol-2-yl)-5-(3-carboxymethoxyphenyl)-2-(4-sulfophenyl)-2H-tetrazolium/phenazinemethosulfate), which is metabolized to produce a brown, water-soluble product that is quantified after 1 h at 37° C. by absorbance read-out at 498 nm. Obtained values are expressed as percent inhibition of untreated RNA-transfected control condition. The CC50 represents the concentration at which the metabolic activity of the cells would be reduced to 50% of the metabolic activity of untreated cells (and was based on two experiments and derived by a nonlinear regression fit in GraphPad using a two-parameter logistic model while keeping the slope variable).

[4] = Viability evaluation (MTS/PMS) of Huh7 cells transfected with Kernow-C1 p6/luc RNA; settings: human, highest tested concentration 50 μM, read-out: relative CC50
Experimental: as §1, with “percentage” for “percent inhibition”, “The relative” for “The”, “and” for “(and”, “two or three” for “two”, “four-parameter” for “two-parameter”, “(4PL) model.” for “model while keeping the slope variable).”

Row | Compound | EC50 [1] [µM] | EC50 [2] [µM] | CC50 [3] [µM] | CC50 [4] [µM]
1 | CC(C)OC(=O)C(C)NP(=O)(OC[C@@]1(N=[N+]=[N-])O[C@@H](n2ccc(=O)[nH]c2=O)[C@@]2(CCS2)[C@@H]1O)Oc1ccccc1 (stereo in doubt) [Compound 1, isopropyl (2R)-2-[[[(4R,5R,6R,8R)-6-azido-8-(2,4-dioxopyrimidin-1-yl)-5-hydroxy-7-oxa-1-thiaspiro[3.4]octan-6-yl]methoxy-phenoxy-phosphoryl]amino]propanoate] | 0.74 | > 50 | > 50 | > 50
2 | CC(C)OC(=O)[C@H](C)NP(=O)(OC[C@@]1(F)O[C@@H](n2ccc(=O)[nH]c2=O)[C@@]2(CCS2)[C@@H]1O)Oc1ccccc1 (stereo partly drawn) [Compound 2, (2S)-isopropyl 2-(((((4R,5R,7S,8R)-5-(2,4-dioxo-3,4-dihydropyrimidin-1(2H)-yl)-7-fluoro-8-hydroxy-6-oxa-1-thiaspiro[3.4]octan-7-yl)methoxy)(phenoxy)phosphoryl)-amino)propanoate] | 5.9 | – | > 50 | > 50
3 | CC(C)OC(=O)[C@H](C)NP(=O)(OC[C@H]1O[C@@H](n2ccc(=O)[nH]c2=O)[C@@]2(CCS2)[C@@H]1O)Oc1ccccc1 (stereo partly drawn) [Compound 3, (2S)-isopropyl 2-(((((4R,5R,7R,8R)-5-(2,4-dioxo-3,4-dihydropyrimidin-1(2H)-yl)-8-hydroxy-6-oxa-1-thiaspiro[3.4]octan-7-yl)methoxy)(phenoxy)phosphoryl)amino)propanoate] | 27 | > 50 | > 50 | > 50
4 | COC(=O)C(C)(C)NP(=O)(OC[C@H]1O[C@@H](n2ccc(=O)[nH]c2=O)[C@@]2(CCO2)[C@@H]1O)Oc1ccccc1 (stereo partly drawn) [Compound 4, methyl 2-[[[(4R,5R,7R,8R)-5-(2,4-dioxo-3,4-dihydropyrimidin-1(2H)-yl)-8-hydroxy-1,6-dioxaspiro[3.4]octan-7-yl]methoxy](phenoxy)phosphorylamino]-2-methylpropanoate] | 0.36 | 0.53 | > 50 | > 50
